Measured values reported in US10851079B2, “Piperidine derivative” (OTSUKA PHARMACEUTICAL CO., LTD., priority 2016, dated 2020).

test system: Mycobacteria tuberculosis (M. tuberculosis H37Rv and M. tuberculosis Kurono); experiment: Antibacterial test (agar plate dilution method), minimum inhibitory concentration; assay type: cell-based; conditions: Mycobacterium tuberculosis, 7H11 agar medium, about 10^6 CFU/mL inoculum, incubation at 37° C., strains H37Rv and Kurono, read-out: minimum inhibitory concentration against Mycobacteria tuberculosis

| SMILES | MIC [µg/mL] |
| --- | --- |
| OC1(COc2cccc3cnccc23)CCN(c2ccc(Cl)cc2F)CC1 [Example 1, 1-(4-chloro-2-fluorophenyl)-4-(isoquinolin-5-yloxymethyl)piperidin-4-ol] | ≤ 3.13 |
| O[C@@H]1CN(c2c(F)cc(Cl)cc2F)CC[C@@]1(O)COc1ccc(Cl)c2cccnc12 [Example 6, (3R,4R)-1-(4-chloro-2,6-difluorophenyl)-4-[(5-chloroquinolin-8-yl)oxymethyl]piperidine-3,4-diol] | ≤ 3.13 |
| CC(C)(C)N1Cc2c(OC[C@]3(O)CCN(c4c(F)cc(Cl)cc4F)C[C@H]3O)cccc2C1=O [Example 9] | ≤ 3.13 |
| Cn1c(=O)[nH]c2cccc(OC[C@]3(O)CCN(c4c(F)cc(Cl)cc4F)C[C@H]3O)c21 [Example 11] | ≤ 3.13 |
| O=C1CCc2c(OC[C@]3(O)CCN(c4c(F)cc(Cl)cc4F)C[C@H]3O)cccc21 [Example 17] | ≤ 3.13 |
| O[C@@H]1CN(c2c(F)cc(Cl)cc2F)CC[C@@]1(O)COc1ccc(Br)c2ccoc12 [Example 23] | ≤ 3.13 |
| OC1CCc2c(OC[C@]3(O)CCN(c4c(F)cc(Cl)cc4F)C[C@H]3O)cccc21 (stereo partly drawn) [Example 24, (3R,4R)-1-(4-chloro-2,6-difluorophenyl)-4-[(1-hydroxy-2,3-dihydro-1H-inden-4-yl)oxymethyl]piperidine-3,4-diol] | ≤ 3.13 |
| O[C@@H]1CN(c2c(F)cc(Cl)cc2F)CC[C@@]1(O)COc1cccc2[nH]ncc12 [Example 28] | ≤ 3.13 |
| Cc1noc2cccc(OC[C@]3(O)CCN(c4c(F)cc(Cl)cc4F)C[C@H]3O)c12 [Example 32] | ≤ 3.13 |
| O[C@@H]1CN(c2c(F)cc(Cl)cc2F)CC[C@@]1(O)COc1cccc2[nH]cnc12 [Example 34] | ≤ 3.13 |
| CN1Cc2c(cccc2OC[C@]2(O)CCN(c3c(F)cc(Cl)cc3F)C[C@H]2O)NC1=O [Example 41] | ≤ 3.13 |
| Cl.O[C@@H]1CN(c2c(F)cc(Cl)cc2F)CC[C@@]1(O)COc1ccc(F)c2c1CCCN2 [Example 44, (3R,4R)-1-(4-chloro-2,6-difluorophenyl)-4-[(8-fluoro-1,2,3,4-tetrahydroquinolin-5-yl)oxymethyl]piperidine-3,4-diol hydrochloride] | ≤ 3.13 |
| O[C@@H]1CN(c2ccc(Cl)cc2F)CC[C@@]1(O)COc1ccc(Cl)c2[nH]ncc12 [Example 47] | ≤ 3.13 |
| O=c1cnc2c(OC[C@]3(O)CCN(c4ccc(Br)cc4F)C[C@H]3O)cccc2[nH]1 [Example 50] | ≤ 3.13 |
| O=c1cnc2cccc(OC[C@]3(O)CCN(c4ccc(Cl)cc4F)C[C@H]3O)c2[nH]1 [Example 51] | ≤ 3.13 |
| Cn1c(=O)cnc2c(OC[C@]3(O)CCN(c4c(F)cc(Cl)cc4F)C[C@H]3O)cccc21 [Example 53, 1-methyl-5-[[(3R,4R)-1-(4-chloro-2,6-difluorophenyl)-3,4-dihydroxypiperidin-4-yl]methoxy]quinoxalin-2-one] | ≤ 3.13 |
| CC(=O)Nc1cc(F)ccc1OC[C@]1(O)CCN(c2c(F)cc(Cl)cc2F)C[C@H]1O [Example 62] | ≤ 3.13 |
| O=C1COCc2c(cccc2OC[C@]2(O)CCN(c3c(F)cc(Cl)cc3F)C[C@H]2O)N1 [Example 65] | ≤ 3.13 |
| O=C1CSCc2c(cccc2OC[C@]2(O)CCN(c3c(F)cc(Cl)cc3F)C[C@H]2O)N1 [Example 66] | ≤ 3.13 |
| O=C1Nc2cccc(OC[C@]3(O)CCN(c4ccc(Cl)cc4F)C[C@H]3O)c2CS1 [Example 68] | ≤ 3.13 |
| O=C1CCc2c(OC[C@]3(O)CCN(c4ccc(Br)cc4F)C[C@H]3O)ccnc2N1 [Example 71] | ≤ 3.13 |
| O=C1CSc2c(cccc2OC[C@]2(O)CCN(c3ccc(Cl)cc3F)C[C@H]2O)N1 [Example 76] | ≤ 3.13 |
| O=C1CCCc2c(OCC3(O)CCN(c4c(F)cc(Cl)cc4F)CC3)ccc(Cl)c2N1 [Example 79] | ≤ 3.13 |

| SMILES | MIC [µg/mL] |
| --- | --- |
| O=C1COc2c(OCC3(O)CCN(c4c(F)cc(Cl)cc4F)CC3)ccc(Cl)c2N1 [Example 80] | ≤ 3.13 |
| O=C1CCCc2c(OC[C@]3(O)CCN(c4c(F)cc(Cl)cc4F)C[C@H]3O)ccc(Cl)c2N1 [Example 84] | ≤ 3.13 |
| O=C1CCc2c(OC[C@]3(O)CCN(c4c(F)cc(Cl)cc4F)C[C@H]3O)ccc(Cl)c21 [Example 90, 7-chloro-4-[[(3R,4R)-1-(4-chloro-2,6-difluorophenyl)-3,4-dihydroxypiperidin-4-yl]methoxy]-2,3-dihydroinden-1-one] | ≤ 3.13 |
| COC(=O)c1cc(Cl)ccc1OC[C@]1(O)CCN(c2c(F)cc(Cl)cc2F)C[C@H]1O [Example 92] | ≤ 3.13 |
| O=C1Cc2c(OC[C@]3(O)CCN(c4c(F)cc(Cl)cc4F)C[C@H]3O)ccc(Cl)c2N1 [Example 95] | ≤ 3.13 |
| OCc1cc(Cl)ccc1OC[C@]1(O)CCN(c2c(F)cc(Cl)cc2F)C[C@H]1O [Example 98, (3R,4R)-1-(4-chloro-2,6-difluorophenyl)-4-[[4-chloro-2-(hydroxymethyl)phenoxy]methyl]piperidine-3,4-diol] | ≤ 3.13 |
| CNC(=O)c1cc(Cl)ccc1OC[C@]1(O)CCN(c2c(F)cc(Cl)cc2F)C[C@H]1O [Example 101] | ≤ 3.13 |
| Cc1c(OC[C@]2(O)CCN(c3c(F)cc(Cl)cc3F)C[C@H]2O)ccc(Cl)c1NC=O [Example 105] | ≤ 3.13 |
| O[C@@H]1CN(c2c(F)cc(Cl)cc2F)CC[C@@]1(O)COc1ccc(Cl)c2[nH]c(=S)ccc12 [Example 108] | ≤ 3.13 |
| O=C1COc2c(OC[C@]3(O)CCN(c4c(F)cc(Cl)cc4F)C[C@H]3O)ccc(Cl)c2N1 [Example 111] | ≤ 3.13 |
| O[C@@H]1CN(c2c(F)cc(Cl)cc2F)CC[C@@]1(O)COc1ccc(Cl)c2[nH]ccc12 [Example 113] | ≤ 3.13 |
| NC(=O)Cc1cc(F)ccc1OC[C@]1(O)CCN(c2c(F)cc(Cl)cc2F)C[C@H]1O [Example 117, 2-[5-fluoro-2-[[(3R,4R)-1-(4-chloro-2,6-difluorophenyl)-3,4-dihydroxypiperidin-4-yl]methoxy]phenyl]acetamide] | ≤ 3.13 |
| O=C1Cc2c(OC[C@]3(O)CCN(c4ccc(Br)cc4F)C[C@H]3O)ccc(Cl)c2N1 [Example 120] | ≤ 3.13 |
| O=c1[nH]c2c(Cl)ccc(OC[C@]3(O)CCN(c4c(F)cc(Cl)cc4F)C[C@H]3O)c2s1 [Example 122] | ≤ 3.13 |
| Nc1nc2c(Cl)ccc(OC[C@]3(O)CCN(c4c(F)cc(Cl)cc4F)C[C@H]3O)c2s1 [Example 127, (3R,4R)-4-[(2-amino-4-chloro-1,3-benzothiazol-7-yl)oxymethyl]-1-(4-chloro-2,6-difluorophenyl)piperidine-3,4-diol] | ≤ 3.13 |
| O=C1NCc2c(OC[C@]3(O)CCN(c4ccc(Br)cc4F)C[C@H]3O)ccc(F)c2N1 [Example 131] | ≤ 3.13 |
| O=C1Nc2c(Cl)ccc(OC[C@]3(O)CCN(c4ccc(Cl)cc4F)C[C@H]3O)c2CO1 [Example 133] | ≤ 3.13 |
| O[C@@H]1CN(c2c(F)cc(Cl)cc2F)CC[C@@]1(O)COc1ccc(F)c2nc(Cl)sc12 [Example 135] | ≤ 3.13 |
| O=c1[nH]c2c(F)ccc(OC[C@]3(O)CCN(c4ccc(Br)cc4F)C[C@H]3O)c2s1 [Example 140] | ≤ 3.13 |
| O=C1Nc2cccc(OC[C@]3(O)CCN(c4c(F)cc(Cl)cc4F)C[C@H]3O)c2CO1 [Example 141] | ≤ 3.13 |
| O=C1Cc2c(OCC3(O)CCN(c4c(F)cc(Cl)cc4F)CC3)ccc(F)c2N1 [Example 145, 4-[[1-(4-chloro-2,6-difluorophenyl)-4-hydroxypiperidin-4-yl]methoxy]-7-fluoro-1,3-dihydroindol-2-one] | ≤ 3.13 |
| Cn1c(=O)c(=O)[nH]c2c(OC[C@]3(O)CCN(c4c(F)cc(Cl)cc4F)C[C@H]3O)ccc(F)c21 [Example 146] | ≤ 3.13 |
| O=c1[nH]c2c(F)ccc(OCC3(O)CCN(c4c(F)cc(Cl)cc4F)CC3)c2s1 [Example 147, 7-[[1-(4-chloro-2,6-difluorophenyl)-4-hydroxypiperidin-4-yl]methoxy]-4-fluoro-3H-1,3-benzothiazol-2-one] | ≤ 3.13 |
